Assays:
BMP-4 = experiment: Quantitative RT-PCR analysis on calvaria: BMP-4; type: cell-based, mouse; conditions: 7 days of culture, normalized to control = 1.00
Description: (§1) All chemicals were from Sigma-Aldrich. Primers for RT-PCR were from Applied Biosystems. The isolation of calvaria was essentially performed as described previously (Garrett, 2003; Garret et al., 2003). The calvaria were cultured in Biggers, Gwatkins, Judah medium supplemented with 1 mg/mL of bovine serum albumin (Cohn fraction V), 100 U/mL each of penicillin/streptomycin, and 0.292 mg/mL of glutaimine. On Day 1, the calvaria were treated with CDDO-Im or CDDO-EA. On Day 4, the medium was replaced with fresh medium, again containing either CDDO-Im or CDDO-EA. On Day 7, the calvaria were collected and either stored at −80° C. for further RNA analysis or fixed in 10% buffered formalin for 24 h and transferred to 80% ethanol for histological analysis.
(§2) After 7 days of culture, RNA was isolated from the calvaria and quantitative RT-PCR analysis was performed for more than 15 different markers including: SOX9 (a transcription factor specific for cartilage), collagen type II (alpha 1), all three isoforms of TGF-β, BMPs 2 and 4, BMP receptor II, Smads 3, 4, 6, and 7, tissue inhibitors of metalloproteinases (TIMP-1 and TIMP-2), and matrix metalloproteinase-9 (MMP-9). […] Both triterpenoids are strong inhibitors of the expression of MMP-9; CDDO-EA (200 nM), caused almost 80% inhibition of the expression of this metalloproteinase, which is known to be involved in the degradation of cartilage (Shinoda et al., 2008).

SOX-9 = experiment: Quantitative RT-PCR analysis on calvaria: SOX-9; type: cell-based, mouse; conditions: 7 days of culture, normalized to control = 1.00
Description: as §1, §2

TGF-β2 = experiment: Quantitative RT-PCR analysis on calvaria: TGF-β2; type: cell-based, mouse; conditions: 7 days of culture, normalized to control = 1.00
Description: as §1, §2

MMP-9 = experiment: Quantitative RT-PCR analysis on calvaria: MMP-9; type: cell-based, mouse; conditions: 7 days of culture, normalized to control = 1.00
Description: as §1, §2

SOX9 = experiment: Western blot of chondrocyte marker SOX9 in bone marrow-derived MSCs; type: cell-based, human; conditions: 100 nM for 7 days; MSCs in chondrogenic culture medium; not detectable in control
Description: (§3) Human bone marrow-derived stromal cells (ScienCell Research Laboratories), which contain a population of responsive mesenchymal stem cells, were grown in mesenchymal stem cell medium (ScienCell Research Laboratories). MSCs were serum-starved 24 hours prior to all experimental conditions. The synthesis of the synthetic triterpenoids, CDDO-Im and CDDO-EA, have been previously described (Sporn et al., 2011).
(§4) For directed chondrocytic differentiation, MSCs were grown in StemPro chondrogenic culture medium (Invitrogen) prepared by the technique of Kassem (2004), which is incorporated herein by reference. See also Medici et al. (2010), which is also incorporated herein by reference. CDDO-Im and CDDO-EA were added to the cultures at a concentration of 100 nM for 7 days. Western blot analysis was performed using the following antibodies at concentrations (and using protocols) recommended by the respective manufacturers: SOX9, COL2A1 (Santa Cruz Biotechnology), Aggrecan (Abcam), β-actin (Sigma-Aldrich). β-actin was used as a loading control. HRP-conjugated IgG TrueBlot reagents (eBioscience) were used at a dilution of 1:1000.

Smad7 = experiment: Quantitative RT-PCR analysis on calvaria: Smad7; type: cell-based, mouse; conditions: 7 days of culture, normalized to control = 1.00
Description: as §1, §2

TGF-β1 = experiment: Quantitative RT-PCR analysis on calvaria: TGF-β1; type: cell-based, mouse; conditions: 7 days of culture, normalized to control = 1.00
Description: as §1, §2

Col II alpha1 = experiment: Quantitative RT-PCR analysis on calvaria: Col II alpha1; type: cell-based, mouse; conditions: 7 days of culture, normalized to control = 1.00
Description: as §1, §2

TIMP-2 = experiment: Quantitative RT-PCR analysis on calvaria: TIMP-2; type: cell-based, mouse; conditions: 7 days of culture, normalized to control = 1.00
Description: as §1, §2

Smad4 = experiment: Quantitative RT-PCR analysis on calvaria: Smad4; type: cell-based, mouse; conditions: 7 days of culture, normalized to control = 1.00
Description: as §1, §2

[1] = tested on: collagen type II (COL2A1); experiment: Immunohistochemical analysis of collagen type II in calvaria; type: cell-based, mouse; conditions: 200 nM, FIG. 1b
Description: as §1
(§5) After fixation for 24 h, the calvaria were decalcified in EDTA, embedded in paraffin, and cut into 4 μm sections. The sections were stained either with modified hematoxylin and eosin or with toluidine blue (1% in 70% ethanol for 20 min, followed by destaining in 70%, 90%, and 100% ethanol for 15 seconds), placed in xylene twice, and then mounted (Garret, 2003). Procedures for immunofluroescence were performed essentially as previously described (Medici et al., 2010). […]

BMP-2 = experiment: Quantitative RT-PCR analysis on calvaria: BMP-2; type: cell-based, mouse; conditions: 7 days of culture, normalized to control = 1.00
Description: as §1, §2

BMPRII = experiment: Quantitative RT-PCR analysis on calvaria: BMPRII; type: cell-based, mouse; conditions: 7 days of culture, normalized to control = 1.00
Description: as §1, §2

TGF-β3 = experiment: Quantitative RT-PCR analysis on calvaria: TGF-β3; type: cell-based, mouse; conditions: 7 days of culture, normalized to control = 1.00
Description: as §1, §2

COL2A1 = experiment: Western blot of chondrocyte marker COL2A1 in bone marrow-derived MSCs; type: cell-based, human; conditions: 100 nM for 7 days; MSCs in chondrogenic culture medium; not detectable in control
Description: as §3, §4

newborn mouse calvaria = experiment: Histological analysis (toluidine blue) of chondrogenesis in newborn mouse calvarial organ cultures; type: cell-based; conditions: 200 nM, 7 days, FIG. 1a, at least 3 sets of replicate experiments
Description: as §1, §5

Smad6 = experiment: Quantitative RT-PCR analysis on calvaria: Smad6; type: cell-based, mouse; conditions: 7 days of culture, normalized to control = 1.00
Description: as §1, §2

TIMP-1 = experiment: Quantitative RT-PCR analysis on calvaria: TIMP-1; type: cell-based, mouse; conditions: 7 days of culture, normalized to control = 1.00
Description: as §1, §2

Smad3 = experiment: Quantitative RT-PCR analysis on calvaria: Smad3; type: cell-based, mouse; conditions: 7 days of culture, normalized to control = 1.00
Description: as §1, §2

Aggrecan = experiment: Western blot of chondrocyte marker Aggrecan in bone marrow-derived MSCs; type: cell-based, human; conditions: 100 nM for 7 days; MSCs in chondrogenic culture medium; not detectable in control
Description: as §3, §4

CC1(C)CC[C@]2(C(=O)n3ccnc3)CC[C@]3(C)[C@H](C(=O)C=C4[C@@]5(C)C=C(C#N)C(=O)C(C)(C)[C@@H]5CC[C@]43C)[C@@H]2C1 [CDDO-Im, CDDO-Imidazolide]
BMP-4 expression (quantitative RT-PCR) (BMP-4; 50 nM): 0.97 ± 0.05
BMP-4 expression (quantitative RT-PCR) (BMP-4; 200 nM): 0.98 ± 0.06
BMP-4 expression (quantitative RT-PCR) (BMP-4; 500 nM): 1.35 ± 0.22
SOX-9 expression (quantitative RT-PCR) (SOX-9; 50 nM): 1.26 ± 0.08
SOX-9 expression (quantitative RT-PCR) (SOX-9; 200 nM): 1.33 ± 0.05
SOX-9 expression (quantitative RT-PCR) (SOX-9; 500 nM): 1.83 ± 0.13
TGF-β2 expression (quantitative RT-PCR) (TGF-β2; 50 nM): 1.17 ± 0.05
TGF-β2 expression (quantitative RT-PCR) (TGF-β2; 200 nM): 1.15 ± 0.09
TGF-β2 expression (quantitative RT-PCR) (TGF-β2; 500 nM): 1.17 ± 0.10
MMP-9 expression (quantitative RT-PCR) (MMP-9; 50 nM): 0.73 ± 0.16
MMP-9 expression (quantitative RT-PCR) (MMP-9; 200 nM): 0.44 ± 0.12
MMP-9 expression (quantitative RT-PCR) (MMP-9; 500 nM): 0.26 ± 0.03
induction of SOX9 (Western blot) (SOX9): clear induction
Smad7 expression (quantitative RT-PCR) (Smad7; 50 nM): 1.05 ± 0.07
Smad7 expression (quantitative RT-PCR) (Smad7; 200 nM): 1.32 ± 0.14
Smad7 expression (quantitative RT-PCR) (Smad7; 500 nM): 1.78 ± 0.18
TGF-β1 expression (quantitative RT-PCR) (TGF-β1; 50 nM): 0.96 ± 0.07
TGF-β1 expression (quantitative RT-PCR) (TGF-β1; 200 nM): 1.08 ± 0.12
TGF-β1 expression (quantitative RT-PCR) (TGF-β1; 500 nM): 1.46 ± 0.12
Col II alpha1 expression (quantitative RT-PCR) (Col II alpha1; 50 nM): 1.45 ± 0.09
Col II alpha1 expression (quantitative RT-PCR) (Col II alpha1; 200 nM): 1.32 ± 0.23
Col II alpha1 expression (quantitative RT-PCR) (Col II alpha1; 500 nM): 1.72 ± 0.39
TIMP-2 expression (quantitative RT-PCR) (TIMP-2; 50 nM): 1.24 ± 0.10
TIMP-2 expression (quantitative RT-PCR) (TIMP-2; 200 nM): 1.67 ± 0.19
TIMP-2 expression (quantitative RT-PCR) (TIMP-2; 500 nM): 2.62 ± 0.29
Smad4 expression (quantitative RT-PCR) (Smad4; 50 nM): 0.96 ± 0.06
Smad4 expression (quantitative RT-PCR) (Smad4; 200 nM): 1.03 ± 0.09
Smad4 expression (quantitative RT-PCR) (Smad4; 500 nM): 1.26 ± 0.09
formation of collagen type II (COL2A1), red fluorescence [1]: induce the formation of collagen type II
BMP-2 expression (quantitative RT-PCR) (BMP-2; 50 nM): 1.17 ± 0.07
BMP-2 expression (quantitative RT-PCR) (BMP-2; 200 nM): 1.60 ± 0.19
BMP-2 expression (quantitative RT-PCR) (BMP-2; 500 nM): 3.14 ± 0.53
BMPRII expression (quantitative RT-PCR) (BMPRII; 50 nM): 1.09 ± 0.06
BMPRII expression (quantitative RT-PCR) (BMPRII; 200 nM): 1.22 ± 0.11
BMPRII expression (quantitative RT-PCR) (BMPRII; 500 nM): 1.46 ± 0.14
TGF-β3 expression (quantitative RT-PCR) (TGF-β3; 50 nM): 1.30 ± 0.07
TGF-β3 expression (quantitative RT-PCR) (TGF-β3; 200 nM): 1.52 ± 0.16
TGF-β3 expression (quantitative RT-PCR) (TGF-β3; 500 nM): 1.66 ± 0.13
induction of COL2A1 (Western blot) (COL2A1): clear induction
induction of chondrogenesis (metachromatic toluidine blue purple staining, proteoglycans) (newborn mouse calvaria): marked ability to induce chondrogenesis
Smad6 expression (quantitative RT-PCR) (Smad6; 50 nM): 0.95 ± 0.05
Smad6 expression (quantitative RT-PCR) (Smad6; 200 nM): 1.23 ± 0.14
Smad6 expression (quantitative RT-PCR) (Smad6; 500 nM): 1.77 ± 0.19
TIMP-1 expression (quantitative RT-PCR) (TIMP-1; 50 nM): 1.43 ± 0.19
TIMP-1 expression (quantitative RT-PCR) (TIMP-1; 200 nM): 1.83 ± 0.18
TIMP-1 expression (quantitative RT-PCR) (TIMP-1; 500 nM): 3.00 ± 0.65
Smad3 expression (quantitative RT-PCR) (Smad3; 50 nM): 0.97 ± 0.07
Smad3 expression (quantitative RT-PCR) (Smad3; 200 nM): 0.90 ± 0.05
Smad3 expression (quantitative RT-PCR) (Smad3; 500 nM): 1.35 ± 0.19
induction of Aggrecan (Western blot) (Aggrecan): clear induction
